Consider nine molecules from article PMC6043372 (Journal of medicinal chemistry, 2018).

The conditions of data set [1]: 100 mg/kg po daily over 4 weeks (24 doses).
The next data set has as its system Mtb H37Rv. The arrangement: species or system BALB/c mice. The note with it: mouse, in vivo.
A short description of another data set: physchem. The settings on record: pH 7.4.
For a further data set, the system named is human red blood cells. As to the kind of experiment: Compound-induced hemolysis of human red blood cells. The note with it: hemolyze 50% of human RBCs vs 2% Triton X-100.
For data set [2] the following is noted: for levels in lung: CD-1, mouse, in vivo; for tolerability in PK study: 25 mg/kg PO single dose, mice.
In data set [3] the test system is M. bovis BCG. It counts as cell-based, Mycobacterium bovis BCG.
For data set [4] the following is noted: lecithin-dodecane lipid layer, 24 h, 25°C.
For the next data set, the system named is piniBAC promoter. It counts as cell-based, Mycobacterium bovis BCG. The note with it: 0.4-100 μM, 24 h.
A short description of data set [5]: Electrophilic reactivity to cysteamine by 1H NMR. It counts as physicochemical. The note with it: DMSO-d6, 1% acetic acid, up to 24 h.
Data set [6] has as its system M. bovis BCG. Kind of data set: microbe, parasite or virus in culture. It counts as cell-based. The settings on record: Mycobacterium tuberculosis variant bovis BCG, read-out: MIC MIC50.
In data set [7] the test system is M. bovis BCG. It counts as cell-based, Mycobacterium bovis BCG. The source holds these as a separate data set.

≈ marks a conversion by molar mass, not a printed value.

One may read the solubility as the dissolved amount per volume that the medium holds. As a reminder, the HC50 is the concentration that lyses half of the red blood cells. The low end stands for more damage to red cells, the high end for less damage to red cells. For the molecule `CCCCCCCCn1cc(CN2CCC3(CC2)OCCO3)c2ccc(OC)cc21` [Compound 1, 8-[(6-methoxy-1-octyl-1H-indolyl-3-yl)methyl]-1,4-dioxa-8-azaspiro[4,5]decane], the “adverse effects during treatment period” value in data set [1] is given as “no adverse effects were detected”. For the same molecule, in the data set on Mtb H37Rv, the “bacterial loads in lungs and spleen (CFU)” value was “only reduced the splenic bacterial load”. In “physchem”, this molecule returned a solubility of 23.9 ± 0.8 µM (≈ 9.91 µg/mL). This molecule also displayed an HC50 in the data set on human red blood cells of 75 µM. In addition, the levels in lung in [2] is on record as ~ 1 μM. Besides, the “kill of mycobacterial cultures by 48 h (time-kill)” value in the data set with M. bovis BCG [3] was “still viable at 48h”. Moreover, the “PAMPA Effective Permeability (Pe)” value in data set [4] is “Cannot be determined”. Also, the “induction of piniBAC promoter activity” value in the data set on piniBAC promoter is reported as “broadly similar to that of isoniazid”.
In the case of `CCCCCCCCn1cc(CN2CCC3(CC2)OC[C@H](C)O3)c2ccc(OC)cc21` [Compound 7], the concentration for 50% haemolysis (HC50) with human red blood cells came to 51 µM.
On to `CCCCCCCCn1cc(CN2CCC3(CC2)OC[C@@H](C)O3)c2ccc(OC)cc21` [Compound 8], for which, in the data set with human red blood cells, the HC50 worked out at 75 µM.
In the case of `CCCCCCCCn1cc(CN2CCC3(CC2)OCCCO3)c2ccc(OC)cc21` [Compound 12], the “adverse effects during treatment period” value in data set [1] was “no adverse effects were detected”. Moreover, the “bacterial loads in lungs and spleen (CFU)” value with Mtb H37Rv is “significantly inhibited bacterial growth in both organs”. The “electrophilic reactivity to cysteamine” value in [5] is “limited electrophilic reactivity”. Besides, in the data set with human red blood cells, the concentration for 50% haemolysis (HC50) is 64 µM. Besides, in data set [2], the “tolerability in PK study” value was “did not cause obvious adverse effects” and the levels in lung is listed as ~ 3 μM. In [2] (25 mg/kg PO, CD1 mice), the “Lung concentration at 5 h” value turned out to be 1408 ng/g. Also, the “PAMPA Effective Permeability (Pe)” value in data set [4] is recorded as “Cannot be determined”. In the data set on piniBAC promoter, the “induction of piniBAC promoter activity” value is reported as “increased the transcriptional activity of the piniBAC in a concentration dependent manner”.
With `CCCCCCCCn1cc(CN2CCC3(CC2)OCCCS3)c2ccc(OC)cc21` [Compound 13], the “electrophilic reactivity to cysteamine” value in [5] was “limited electrophilic reactivity”. The same molecule registered a solubility in the data set “physchem” of 30.9 ± 1.3 µM (≈ 13.7 µg/mL). In addition, the “tolerability in PK study” value in data set [2] is “did not cause obvious adverse effects”. Also, the “PAMPA Effective Permeability (Pe)” value in data set [4] was “Cannot be determined”. Besides, in the data set with piniBAC promoter, the “induction of piniBAC promoter activity” value is recorded as “increased the transcriptional activity of the piniBAC in a concentration dependent manner”.
With `CCCCCCCCn1cc(CN2CCC3(CC2)OCCCO3)c2ccc(C#N)cc21` [Compound 57e], the MIC50 in the data set on M. bovis BCG [6] lay in the range of 0.5 to 0.7 µM (≈ 0.212 to 0.297 µg/mL).
With `CCCCCCCCn1cc(CN2CCC3(CC2)OCCCO3)c2ccc(OCCC)cc21` [Compound 57f], in the data set on M. bovis BCG [6], the MIC50 is 0.5 to 0.7 µM (≈ 0.228 to 0.32 µg/mL).
As for `CCCCCCCCn1cc(CN2CCC3(CC2)OCCCO3)c2ccc(OC(C)C)cc21` [Compound 57g], the MIC50 with M. bovis BCG [6] lay in the range of 0.5 to 0.7 µM (≈ 0.228 to 0.32 µg/mL).
`CCCCCCCCn1cc(CN2CCCCCC2)c2c(F)cccc21` [Compound 71, 3-(azepan-1-ylmethyl)-4-fluoro-1-octyl-1H indole]: the “membrane potential (DiOC2 red/green ratio)” value with M. bovis BCG [7] is given as “no depolarization at these early time points”.
